Source: article PMC6790694, “Selective Modification of Ribosomally Synthesized and Post‐Translationally Modified Peptides (RiPPs) through Diels–Alder Cycloadditions on Dehydroalanine Residues” (Chemistry (Weinheim an Der Bergstrasse, Germany), 2019)
In brackets after ≈: the same amount, converted by molar mass.

Assays:
E. faecalis (ATCC29212) = experiment: MIC assay, broth microdilution, E. faecalis; format: cell-based, Enterococcus faecalis; conditions: supplement table SI-21; E. faecalis LMG 08222 (ATCC29212); broth microdilution in CAMHB + 3 % v/v lysed horse blood, 37 °C, 20 h; tested three times in triplicates
Procedure: (§1) Moreover, variations in activity towards both strains and between the different site‐ and endo/exo isomers remained limited to a factor of 4. The activity of 3 also very closely resembles that of thiostrepton, showing that even removing part of the tail region has little effect on its activity.
(§2) Biological Activity Assays
(§3) Preparation of antimicrobial agents
(§4) Thiostrepton and its variants were dissolved and diluted in DMSO to a concentration of 640 µg/ml, and stored at -20 °C. Before use, they were diluted 20 fold in Mueller Hinton Broth 2 (CAMHB; cation-adjusted, Sigma-Aldrich).
(§5) Dilution of the thiostrepton compounds in CAMHB was done in 50 % volume steps to prevent precipitation.
(§6) Vancomycin for the quality controls was dissolved in MQ to a concentration of 256 mg/ml and stored at -20 °C.
(§7) It was diluted in CAMHB to a final concentration of 256 µg/ml before use.
(§8) Strains and growth conditions
(§9) The MIC values of thiostrepton and its variants were determined for Staphylococcus aureus LMG 10147 […]
(§10) from glycerol stocks on LB (Formedium™) and GM17 (Difco™) plates respectively. […]
(§11) Well 11, lacking the test compound, functions as a growth control and well 12 as a sterility control. […] To ensure MIC data reliability, MIC values for vancomycin were determined for every series of tests performed, as described […]

S. aureus (ATCC29213) = experiment: MIC assay, broth microdilution, S. aureus; format: cell-based, Staphylococcus aureus; conditions: supplement table SI-21; S. aureus LMG 10147 (ATCC29213); broth microdilution in CAMHB, 37 °C, 20 h; tested three times in triplicates
Procedure: as §1, §2, §3, §4, §5, §6, §7, §8, §9, §10, §11

Question: How did the “MIC against E. faecalis (VSE)” value (E. faecalis (ATCC29212)) turn out when `C=C(NC(=O)C(=C)NC(=O)c1csc(C2=N[C@@H]3c4csc(n4)[C@H]4NC(=O)c5csc(n5)[C@H]([C@](C)(O)[C@@H](C)O)NC(=O)[C@H]5CSC(=N5)/C(=C/C)NC(=O)[C@H]([C@@H](C)O)NC(=O)c5csc(n5)[C@]3(CC2)NC(=O)[C@H](C)NC(=O)C(=C)NC(=O)[C@H](C)NC(=O)[C@H]([C@@H](C)CC)N[C@@H]2C=Cc3c([C@H](C)O)cc(nc3[C@H]2O)C(=O)O[C@@H]4C)n1)C(N)=O` [Thiostrepton, thiostrepton] was run?
Answer: Its value is 0.5 µg/mL.

Question: And the “MIC against S. aureus (MSSA)” value (S. aureus (ATCC29213))?
Answer: The value was 0.5 µg/mL (≈ 0.3 µM).
